Results on 19 molecules are retold here after US12503461B2, “Pesticidally active heterocyclic derivatives with sulfur and sulfoximine containing substituents” (SYNGENTA CROP PROTECTION AG, priority 2019, dated 2025).

Holding throughout (type): in vivo
The subject of test [1] is Plutella xylostella (Diamond Back Moth). As to the kind of experiment: Example B4: Plutella xylostella (diamond back moth), treated artificial diet, eggs. The note with it: 192 h, application rate of 200 ppm, 8 days after infestation, in comparison to untreated samples, read-out: effect in at least one of the two categories (mortality or growth inhibition). As to the method:
Example B4: Plutella xylostella (Diamond Back Moth
24-well microtiter plates with artificial diet were treated with aqueous test solutions prepared from 10′000 ppm DMSO stock solutions by pipetting. After drying, Plutella eggs were pipetted through a plastic stencil onto a gel blotting paper and the plate was closed with it. The samples were assessed for mortality and growth inhibition in comparison to untreated samples 8 days after infestation.

The test system of test [2] is Spodoptera littoralis (Egyptian Cotton Leaf Worm). As to the kind of experiment: Example B7: Spodoptera littoralis (Egyptian cotton leaf worm), sprayed cotton leaf discs, L1 larvae. The note with it: foliar, 72 h, application rate of 200 ppm, 3 days after infestation, in comparison to untreated samples. As to the method:
Example B7: Spodoptera littoralis (Egyptian Cotton Leaf Worm
Cotton leaf discs were placed onto agar in 24-well microtiter plates and sprayed with aqueous test solutions prepared from 10′000 ppm DMSO stock solutions. After drying the leaf discs were infested with five L1 larvae. The samples were assessed for mortality, anti-feeding effect, and growth inhibition in comparison to untreated samples 3 days after infestation. Control of Spodoptera littoralis by a test sample is given when at least one of the categories mortality, anti-feedant effect, and growth inhibition is higher than the untreated sample.

Test [3] deals with Diabrotica balteata (Corn Root Worm). As to the kind of experiment: Example B1: Diabrotica balteata (corn root worm), sprayed maize sprouts on agar, L2 larvae. As to conditions: 96 h, application rate of 200 ppm, 4 days after infestation, in comparison to untreated samples, read-out: effect in at least one of the two categories (mortality or growth inhibition). As to the method: Example B1: Diabrotica balteata (Corn Root Worm
Maize sprouts placed onto an agar layer in 24-well microtiter plates were treated with aqueous test solutions prepared from 10′000 ppm DMSO stock solutions by spraying. After drying, the plates were infested with L2 larvae (6 to 10 per well). The samples were assessed for mortality and growth inhibition in comparison to untreated samples 4 days after infestation.

In the case of `CCN=S(=O)(c1ccc2c(c1)nc(-c1nc(-n3cnc(Cl)n3)ccc1S(=O)(=O)CC)n2C)C(F)(F)F` (stereo not shown) [P47, [2-[6-(3-chloro-1,2,4-triazol-1-yl)-3-ethylsulfonyl-2-pyridyl]-1-methyl-benzimidazol-5-yl]-ethylimino-oxo-(trifluoromethyl)-λ^6-sulfane], the percent effect (mortality or growth inhibition) at 200 ppm in test [1] and in test [3] was ≥ 80% throughout. Further, in test [2], the percent control (mortality, anti-feeding effect or growth inhibition) at 200 ppm is ≥ 80%.

`CCN=S(=O)(c1ccc2c(c1)nc(-c1nc(-n3cnc(C(F)(F)F)n3)ccc1S(=O)(=O)CC)n2C)C(F)(F)F` (stereo not shown) [P49, ethylimino-[2-[3-ethylsulfonyl-6-[3-(trifluoromethyl)-1,2,4-triazol-1-yl]-2-pyridyl]-1-methyl-benzimidazol-5-yl]-oxo-(trifluoromethyl)-λ^6-sulfane]: the percent effect (mortality or growth inhibition) at 200 ppm in test [1] and in test [3] was ≥ 80% in each case. Also, the percent control (mortality, anti-feeding effect or growth inhibition) at 200 ppm in test [2] is ≥ 80%.

Take `CCS(=O)(=O)c1cccnc1-c1nc2cc(S(=O)(=NCC(F)(F)F)C(F)(F)F)ccc2o1` (stereo not shown) [P14, [2-(3-ethylsulfonyl-2-pyridyl)-1,3-benzoxazol-5-yl]-oxo-(2,2,2-trifluoroethylimino)-(trifluoromethyl)-λ^6-sulfane]: the percent effect (mortality or growth inhibition) at 200 ppm in test [1] and in test [3] was ≥ 80% in each case. Moreover, the percent control (mortality, anti-feeding effect or growth inhibition) at 200 ppm in test [2] is ≥ 80%.

With `CCS(=O)(=O)c1cc(C2(C#N)CC2)cnc1-c1nc2cc(S(=O)(=NCC(F)(F)F)C(F)(F)F)ccc2o1` (stereo not drawn) [P28, 1-[5-ethylsulfonyl-6-[5-[N-(2,2,2-trifluoroethyl)-S-(trifluoromethyl)sulfonimidoyl]-1,3-benzoxazol-2-yl]-3-pyridyl]cyclopropanecarbonitrile], the percent effect (mortality or growth inhibition) at 200 ppm in test [1] and in test [3] was ≥ 80% throughout. In test [2], the percent control (mortality, anti-feeding effect or growth inhibition) at 200 ppm is ≥ 80%.

On to `CCN=S(=O)(c1ccc2oc(-c3nc(-c4ncccn4)ccc3S(=O)(=O)CC)nc2c1)C(F)(F)F` (stereo not shown) [P55, ethylimino-[2-(3-ethylsulfonyl-6-pyrimidin-2-yl-2-pyridyl)-1,3-benzoxazol-5-yl]-oxo-(trifluoromethyl)-λ^6-sulfane], for which the percent effect (mortality or growth inhibition) at 200 ppm in test [1] and in test [3] was ≥ 80% in each case. Also, the percent control (mortality, anti-feeding effect or growth inhibition) at 200 ppm in test [2] was ≥ 80%.

For `CCS(=O)(=O)c1cc(OCC(F)(F)F)cnc1-c1nc2cc(S(=N)(=O)C(F)(F)F)ccc2o1` (stereo not shown) [P23, [2-[3-ethylsulfonyl-5-(2,2,2-trifluoroethoxy)-2-pyridyl]-1,3-benzoxazol-5-yl]-imino-oxo-(trifluoromethyl)-λ^6-sulfane], the percent effect (mortality or growth inhibition) at 200 ppm in test [1] and in test [3] was ≥ 80% throughout. Also, the percent control (mortality, anti-feeding effect or growth inhibition) at 200 ppm in test [2] was ≥ 80%.

As to `CCS(=O)(=O)c1cccnc1-c1nc2cc(S(=O)(=NC#N)C(F)(F)F)ccc2o1` (stereo not shown) [P15, [[2-(3-ethylsulfonyl-2-pyridyl)-1,3-benzoxazol-5-yl]-oxo-(trifluoromethyl)-λ^6-sulfanylidene]cyanamide], the percent effect (mortality or growth inhibition) at 200 ppm in test [1] and in test [3] was ≥ 80% in each case.

In the case of `CCN=S(=O)(c1ccc2oc(-c3ncc(-n4ccc(C(F)(F)F)n4)cc3S(=O)(=O)CC)nc2c1)C(F)(F)F` (stereo not shown) [P5, ethylimino-[2-[3-ethylsulfonyl-5-[3-(trifluoromethyl)pyrazol-1-yl]-2-pyridyl]-1,3-benzoxazol-5-yl]-oxo-(trifluoromethyl)-λ^6-sulfane], the percent effect (mortality or growth inhibition) at 200 ppm in test [1] and in test [3] was ≥ 80% each time.

Turning to `CCS(=O)(=O)c1ccc(-c2ncccn2)nc1-c1nc2cc(S(=N)(=O)C(F)(F)F)ccc2o1` (stereo not shown) [P54, [2-(3-ethylsulfonyl-6-pyrimidin-2-yl-2-pyridyl)-1,3-benzoxazol-5-yl]-imino-oxo-(trifluoromethyl)-λ^6-sulfane], the percent effect (mortality or growth inhibition) at 200 ppm in test [1] and in test [3] was ≥ 80% each time. Moreover, in test [2], the percent control (mortality, anti-feeding effect or growth inhibition) at 200 ppm was ≥ 80%.

Take `CCN=S(=O)(c1ccc2oc(-c3ncc(-c4ncc(Cl)cn4)cc3S(=O)(=O)CC)nc2c1)C(F)(F)F` (stereo not shown) [P43, [2-[5-(5-chloropyrimidin-2-yl)-3-ethylsulfonyl-2-pyridyl]-1,3-benzoxazol-5-yl]-ethylimino-oxo-(trifluoromethyl)-λ^6-sulfane]: the percent effect (mortality or growth inhibition) at 200 ppm in test [1] and in test [3] was ≥ 80% each time. Also, the percent control (mortality, anti-feeding effect or growth inhibition) at 200 ppm in test [2] was ≥ 80%.

For the molecule `CCN=S(=O)(c1ccc2oc(-c3nc(-n4cncn4)ccc3S(=O)(=O)CC)nc2c1)C(F)(F)F` (stereo not shown) [P39, ethylimino-[2-[3-ethylsulfonyl-6-(1,2,4-triazol-1-yl)-2-pyridyl]-1,3-benzoxazol-5-yl]-oxo-(trifluoromethyl)-λ^6-sulfane], the percent effect (mortality or growth inhibition) at 200 ppm in test [3] is ≥ 80%.

In the case of `CCN=S(=O)(c1ccc2oc(-c3ncc(-n4ccc(Cl)n4)cc3S(=O)(=O)CC)nc2c1)C(F)(F)F` (stereo not shown) [P38, [2-[5-(3-chloropyrazol-1-yl)-3-ethylsulfonyl-2-pyridyl]-1,3-benzoxazol-5-yl]-ethylimino-oxo-(trifluoromethyl)-λ^6-sulfane], the percent effect (mortality or growth inhibition) at 200 ppm in test [1] and in test [3] was ≥ 80% in each case. Moreover, the percent control (mortality, anti-feeding effect or growth inhibition) at 200 ppm in test [2] was ≥ 80%.

For the molecule `CCS(=O)(=O)c1cc(C2(C#N)CC2)cnc1-c1nc2cc(S(=O)(=NC3CC3)C(F)(F)F)ccc2o1` (stereo not drawn) [P30, 1-[6-[5-[N-cyclopropyl-S-(trifluoromethyl)sulfonimidoyl]-1,3-benzoxazol-2-yl]-5-ethylsulfonyl-3-pyridyl]cyclopropanecarbonitrile], the percent effect (mortality or growth inhibition) at 200 ppm in test [1] and in test [3] was ≥ 80% each time. The percent control (mortality, anti-feeding effect or growth inhibition) at 200 ppm in test [2] is ≥ 80%.

As for `CCN=S(=O)(c1ccc2oc(-c3ncc(-c4nccc(C(F)(F)F)n4)cc3S(=O)(=O)CC)nc2c1)C(F)(F)F` (stereo not shown) [P41, ethylimino-[2-[3-ethylsulfonyl-5-[4-(trifluoromethyl)pyrimidin-2-yl]-2-pyridyl]-1,3-benzoxazol-5-yl]-oxo-(trifluoromethyl)-λ^6-sulfane], the percent effect (mortality or growth inhibition) at 200 ppm in test [1] and in test [3] was ≥ 80% each time. Besides, the percent control (mortality, anti-feeding effect or growth inhibition) at 200 ppm in test [2] was ≥ 80%.

Consider `CCS(=O)(=O)c1ccc(-n2cncn2)nc1-c1nc2cc(S(=N)(=O)C(F)(F)F)ccc2o1` (stereo not shown) [P56, [2-[3-ethylsulfonyl-6-(1,2,4-triazol-1-yl)-2-pyridyl]-1,3-benzoxazol-5-yl]-imino-oxo-(trifluoromethyl)-λ^6-sulfane], for which the percent effect (mortality or growth inhibition) at 200 ppm in test [1] and in test [3] was ≥ 80% in each case.

For `CCS(=O)(=O)c1cc(-n2ccc(C(F)(F)F)n2)cnc1-c1nc2cc(S(=N)(=O)C(F)(F)F)ccc2o1` (stereo not shown) [P6, [2-[3-ethylsulfonyl-5-[3-(trifluoromethyl)pyrazol-1-yl]-2-pyridyl]-1,3-benzoxazol-5-yl]-imino-oxo-(trifluoromethyl)-λ^6-sulfane], the percent effect (mortality or growth inhibition) at 200 ppm in test [1] and in test [3] was ≥ 80% in each case. Moreover, in test [2], the percent control (mortality, anti-feeding effect or growth inhibition) at 200 ppm is ≥ 80%.

Regarding `CCS(=O)(=O)c1cc(N(C)C(C)=O)cnc1-c1nc2cc(S(=N)(=O)C(F)(F)F)ccc2o1` (stereo not shown) [P4, N-[5-ethylsulfonyl-6-[5-(trifluoromethylsulfonimidoyl)-1,3-benzoxazol-2-yl]-3-pyridyl]-N-methyl-acetamide], the percent effect (mortality or growth inhibition) at 200 ppm in test [1] and in test [3] was ≥ 80% each time. Also, in test [2], the percent control (mortality, anti-feeding effect or growth inhibition) at 200 ppm was ≥ 80%.

Take `CCS(=O)(=O)c1ccc(-n2cnc(Cl)n2)nc1-c1nc2cc(S(=N)(=O)C(F)(F)F)ccc2n1C` (stereo not shown) [P46, [2-[6-(3-chloro-1,2,4-triazol-1-yl)-3-ethylsulfonyl-2-pyridyl]-1-methyl-benzimidazol-5-yl]-imino-oxo-(trifluoromethyl)-λ^6-sulfane]: the percent effect (mortality or growth inhibition) at 200 ppm in test [1] and in test [3] was ≥ 80% each time. Besides, the percent control (mortality, anti-feeding effect or growth inhibition) at 200 ppm in test [2] was ≥ 80%.

In the case of `CCS(=O)(=O)c1cc(-n2ccc(Cl)n2)cnc1-c1nc2cc(S(=N)(=O)C(F)(F)F)ccc2o1` (stereo not shown) [P37, [2-[5-(3-chloropyrazol-1-yl)-3-ethylsulfonyl-2-pyridyl]-1,3-benzoxazol-5-yl]-imino-oxo-(trifluoromethyl)-λ^6-sulfane], the percent effect (mortality or growth inhibition) at 200 ppm in test [1] and in test [3] was ≥ 80% throughout. Also, the percent control (mortality, anti-feeding effect or growth inhibition) at 200 ppm in test [2] is ≥ 80%.
